{"source": "patent US7655253B2", "about": "“Navel orangeworm pheromone composition” (Bedoukian Research, Inc., priority 2004, dated 2010)", "key": {"[1]": {"tested_on": "olfactory receptor neurons (ORN) in sensilla trichodea of male moth antennae", "test": "Single sensillum recordings (SSR) from sensilla trichodea", "design": "species or system Amyelois transitella", "excerpt": "Single sensillum recordings (SSR). Male moths were immobilized with dental wax on the recording stage of a single sensillum recording unit (Syntech, INR-02), the tip of the sensilla were cut (Kaissling, K. E. Single unit and electroantennogram recordings in insect olfactory organs, In: Spielman A. I., Brand J. G. (ed) Experimental Cell Biology of Taste and Olfaction: Current Techniques and Protocols, CRC Press, Boca Raton, pp.361-386 (1995)) and placed under a stereomicroscope (SZX12,Olympus, Tokyo, Japan). The indifferent (ground) electrode was a thin tungsten electrode inserted into the head. The recording glass electrode was slipped over the cut tip of the sensilla with a Piezo Manipulator (PM-10, World Precision Instruments, Sarasota, Fla.) while the signal was monitored with a Tektronix oscilloscope (TDS-2014). The pre-amplified signal was acquired with an acquisition system (IDAC-USB, Syntech) and SSR software (Autospike 2000, Syntech). The antennal preparation was continuously flushed with clean air at 0.5 m/s. Each stimulus was applied to a filter paper, dried at least 10 min, and placed within a glass cartridge (7 mm i.d.; 5 cm long). The cartridge opening was placed 1 cm in front of the antennae. The stimulus air was delivered by a stimulus controller (CD-02/E, Syntech)."}, "[2]": {"tested_on": "male moth antennae (navel orangeworm)", "test": "GC-EAD using male navel orangeworm antennae as sensing element", "design": "species or system Amyelois transitella", "settings": "for EAD activity of natural constituent: peaks in female pheromone gland extract or its fractions; for EAD activity of synthetic or authentic compound: synthetic standard", "protocol": "General. Gas chromatography-mass spectrometry (GC-MS), described in Examples 1-6, was obtained with a 5973 Network Mass Selective Detector linked to a 6890 Network GC System (Agilent Technologies, Palo Alto, Calif.) operated either in the electron impact (EI) or chemical ionization (CI) mode. Chromatographic resolution was done on an HP-5MS column (30 m×0.25 mm; 0.25 μm; Agilent) that was operated at 70° C. for 1 min, increased to 250° C. at a rate of 10° C./min and held at this temperature for 10 min. Vapor phase infrared spectroscopy was carried out on a Win GC/IR Pro (Varian Inc., formerly Digilab, Randolph, Mass.) with a GC/IR interface and a Scimitar FTS 2000 linked to a 6890 Network GC System (Agilent). Separation was done on a HP-5 column (30 m×0.32 mm; 0.25 μm; Agilent) operated at 100° C. for 1 min, increased to 250° C. at a rate of 20° C./min and held at this temperature for 5 min; the transfer line and light pipe were operated at 250° C. Gas chromatography with electroantennographic detection (GC-EAD) was done with two different systems: HP 5890 and HP 6890 (Agilent) both having Syntech's GC-EAD transfer lines and temperature control units (Hilversum, The Netherlands). In both systems, the effluent from the capillary column was split into EAD and flame ionization detector (FID) in 3:1 ratios. Male antennae were placed in EAG probes (Syntech) and held in place with Spectra 360 electrode gel (Parker Laboratories, Orange, N.J.). These probes were connected to AM-01 amplifiers (Syntech). The analog signals were fed into A/D 35900E interfaces (Agilent) and acquired simultaneously with FID signal on an Agilent Chemstation. Chromatographic separations were done either with HP-5MS column operated as in GC-MS or with HP-INNOWAX column (30 m×0.32 mm; 0.25 μm; Agilent) operated at 70° C. for 1 min, increased to 250° C. at a rate of 10° C./min and held at this temperature for 5 min.\nGas chromatography coupled with an electroantennographic detector (GC-EAD) using male moth antennae as the sensing element was used to determine the active constituents in these SSR-active fractions (3% and hexane). […] The peaks were numbered in the order of their retention times (tR) in a non-polar column (1: tR, 17.30 min; 2: 18.44 min; 3: 18.96 min; 4: 19.08 min; 5: 20.9 min; 6: 23.8 min). The retention times of these EAD-active peaks in a polar column (HP-INNOWAX) were: 16.59, 17.37, 18.32, and 18.72 min (3% fraction) and 18.52 and 20.22 min (hexane fraction).\nPheromone glands were individually dissected out of >2,000 virgin female NOW, and the glands were extracted in −250 microliters of pentane in composite batches of −250-300 glands per extract. The extracts were screened by GC-EAD analysis to locate the compounds which elicited responses from male antennae (i.e., potential pheromone compounds). The extracts were then concentrated to ˜10-20 microliters, and aliquots were analyzed on several GC columns with different polarity, by coupled GC-mass spectrometry, and by coupled GC-Fourier transform infrared spectrometry. A parallel set of studies was conducted with composite pheromone gland extracts prepared from Pyralis females. A subset of the extracts were also combined and fractionated by liquid chromatography, to provide samples for wind tunnel tests."}, "[3]": {"tested_on": "antennae of male meal moth", "test": "GC-EAD using male meal moth antennae", "design": "species or system Pyralis farinalis", "protocol": "General. Gas chromatography-mass spectrometry (GC-MS), described in Examples 1-6, was obtained with a 5973 Network Mass Selective Detector linked to a 6890 Network GC System (Agilent Technologies, Palo Alto, Calif.) operated either in the electron impact (EI) or chemical ionization (CI) mode. Chromatographic resolution was done on an HP-5MS column (30 m×0.25 mm; 0.25 μm; Agilent) that was operated at 70° C. for 1 min, increased to 250° C. at a rate of 10° C./min and held at this temperature for 10 min. Vapor phase infrared spectroscopy was carried out on a Win GC/IR Pro (Varian Inc., formerly Digilab, Randolph, Mass.) with a GC/IR interface and a Scimitar FTS 2000 linked to a 6890 Network GC System (Agilent). Separation was done on a HP-5 column (30 m×0.32 mm; 0.25 μm; Agilent) operated at 100° C. for 1 min, increased to 250° C. at a rate of 20° C./min and held at this temperature for 5 min; the transfer line and light pipe were operated at 250° C. […]\nPheromone glands were individually dissected out of >2,000 virgin female NOW, and the glands were extracted in −250 microliters of pentane in composite batches of −250-300 glands per extract. […] The extracts were then concentrated to ˜10-20 microliters, and aliquots were analyzed on several GC columns with different polarity, by coupled GC-mass spectrometry, and by coupled GC-Fourier transform infrared spectrometry. […]"}, "[4]": {"tested_on": "meal moth", "test": "Field trap tests, UC Davis, meal moth captures", "format": "in vivo, Pyralis farinalis", "settings": "for catches of meal moth in traps baited with virgin female navel orangeworm plus added compound: synthetic sample 0.5 mg per device added", "protocol": "(§1) Experimental. Tests were conducted in almond and walnut plot fields in the UC Davis campus. Pheromone samples (0.5 mg) were formulated in rubber septa or in 12 mm diameter, 3 mm thick discs (made of ES fiber, Chisso Co. Ltd, Tokyo, Japan) and loaded into Pherocon 1C traps (Trece Inc., Salinas, Calif.). Three or five 1 to 3-day old virgin females were placed in fiberglass screen cages (Curtis, C. E. and Clark, J. D., J Econ Entomol 77:1057-1061 (1984) Curtis et al., J Econ Entomol 78:1425-1430 (1985)). Baited and control traps were placed at ca. 1.8 m height in randomized blocks with the intertrap distance of ca. 10 m. Capture data were transformed to log (x+0.5) and analyzed by ANOVA. […] Means of captures are untransformed, and error bars show one standard error (SE)."}, "[5]": {"tested_on": "major pheromone-binding protein (AtraPBP)", "test": "Binding assays with recombinant olfactory proteins", "design": "species or system navel orangeworm, A. transitella", "settings": "preliminary screening of ligands", "excerpt": "Synthetic pheromone compositions can be conveniently tested in the assays described below. For example, the synthetic pheromone compositions of the present invention can be tested.to determine affinity for a pheromone-binding protein (AtraPBP) present in the navel orangeworm. Alternatively, the compositions can be tested for the ability to stimulate the olfactory receptor neurons (ORNs) in the insect's sensilla trichodea producing a response that indicates the presence or absence of a pheromone. In a typical embodiment, the compositions stimulate an electroantennogram response from an insect pest antenna, as described below.\nResults. A comprehensive approach was taken in studying chemical communication in the navel orangeworm, A. transitella. Pheromone- and odorant-binding proteins were isolated, cloned, and expressed."}, "[6]": {"tested_on": "navel orangeworm", "test": "Field trap tests, UC Davis, navel orangeworm captures", "format": "in vivo, Amyelois transitella", "settings": "0.5 mg lure, 3-wk period", "protocol": "as §1"}, "[7]": {"tested_on": "NOW males", "test": "Wind tunnel bioassays of male NOW flight responses", "format": "in vivo, Amyelois transitella", "protocol": "Flight responses of male NOW to different blends and doses of synthesized pheromone components were tested in the ARS wind tunnel. Males were 2-3 days old and were used during the last two hours of shotophase (dark cycle). The wind tunnel room was maintained at 23-26° C. with >35% relative humidity. NOW males were placed in individual aluminum-screen cages during their 1st or 2nd photophase and then held in an incubator until one hour prior to testing, when they were transferred from their dark incubator to the wind tunnel. […] After conditioning to ambient conditions in the wind tunnel for one hour, males were assayed individually to test compounds formulated on 1cm dia. filter paper disks. Information recorded included the number of males per trial that reached the pheromone source, the time to reach the pheromone source, and observations of the flight behavior (e.g., relatively straight flight; looping flight; veering out of the pheromone plume, etc.)\nSubsequent wind tunnel tests were evaluated on quantitative as well as qualitative responses of NOW males to test formulations. All treatments were applied to 1 cm filter paper disks in at least 25 ul of hexane, to fully “wet” the paper surface, and at least 5 males were tested individually to each pheromone blend."}}}
{"compound": "CC/C=C/C=C/CCCCCCCCCC=O", "note": "[(E,E)-1]", "values": [{"measurement": "SSR response of olfactory receptor neurons", "setting": "[1]", "result": "activated mainly a small spike ORN, with small activation of a large spike cell"}]}
{"compound": "CC/C=C\\C/C=C\\C/C=C\\C/C=C\\C/C=C\\CCCCCCC", "note": "(single isomer, unassigned) [Compound 5, (Z,Z,Z,Z,Z)-3,6,9,12,15-tricosapentaene]", "values": [{"measurement": "EAD activity of natural constituent", "setting": "[2]", "result": "EAD-active"}]}
{"compound": "CC/C=C\\C/C=C\\C/C=C\\C/C=C\\C/C=C\\CCCCCCC", "note": "[(Z,Z,Z,Z,Z)-3,6,9,12,15-tricosapentaene]", "values": [{"measurement": "share of NOW antennal preparations with detectable response", "setting": "[2]; NOW gland extract screened by GC-EAD", "result": "about half"}, {"measurement": "EAD activity of natural constituent", "setting": "[2]", "result": "much weaker response"}, {"measurement": "EAD response of male meal moth antennae", "setting": "[3]", "result": "consistently elicited responses from the male antennae"}]}
{"compound": "CCCCCCCCCCCCCCCC(=O)OCC", "note": "[ethyl palmitate]", "values": [{"measurement": "EAD activity of synthetic or authentic compound", "setting": "[2]", "result": "EAD activity"}]}
{"compound": "CC/C=C\\C=C/CCCCCCCCCCOC(C)=O", "note": "[(Z,Z)-11,13-hexadecadien-1-yl acetate]", "values": [{"measurement": "EAD activity of synthetic or authentic compound", "setting": "[2]", "result": "same electrophysiological activity as the natural product"}, {"measurement": "effect of removing the compound from the full mixture on meal moth captures", "setting": "[4]; partial mixtures", "result": "increased dramatically captures of male meal moth"}, {"measurement": "catches of meal moth in traps baited with virgin female navel orangeworm plus added compound", "setting": "[4]", "result": "complete lack of captures"}]}
{"compound": "CCCCCCCCCCCCCCCC(=O)OCC", "note": "(single isomer, unassigned) [Compound 2, ethyl palmitate]", "values": [{"measurement": "EAD activity of natural constituent", "setting": "[2]", "result": "EAD-active"}]}
{"compound": "CC/C=C\\C/C=C\\C/C=C\\C/C=C\\C/C=C\\CCCCCCCCC", "note": "(single isomer, unassigned) [Compound 6, (Z,Z,Z,Z,Z)-3,6,9,12,15-pentacosapentaene]", "values": [{"measurement": "EAD activity of natural constituent", "setting": "[2]", "result": "EAD-active"}]}
{"compound": "CC/C=C\\C=C\\CCCCCCCCCC=O", "note": "[(E,Z)-1, E,Z-11,13-hexadecadienal]", "values": [{"measurement": "EAD activity of natural constituent", "setting": "[2]", "result": "small EAD-active peaks"}]}
{"compound": "CC/C=C/C=C\\CCCCCCCCCC=O", "note": "[(Z,E)-1, Z,E-11,13-hexadecadienal]", "values": [{"measurement": "EAD activity of natural constituent", "setting": "[2]", "result": "small EAD-active peaks"}]}
{"compound": "CC/C=C\\C=C/CCCCCCCCCC=O", "note": "(single isomer, unassigned) [Compound 1, (Z,Z)-11,13-hexadecadienal]", "values": [{"measurement": "affinity to AtraPBP", "setting": "[5]", "result": "apparent high affinity"}, {"measurement": "EAD activity of natural constituent", "setting": "[2]", "result": "EAD-active"}, {"measurement": "EAD activity of natural constituent", "setting": "[2]; listed as (Z,Z)-1", "result": "strongest EAD-active peak"}, {"measurement": "SSR response of olfactory receptor neurons", "setting": "[1]", "result": "large spike amplitude cells (FIG. 1A) were activated"}, {"measurement": "captures of male navel orangeworm in baited traps", "setting": "[6]", "result": "captured no moths"}, {"measurement": "male NOW response in wind tunnel", "setting": "[7]; synthesized standards and crude extract", "result": "no test males responded"}]}
{"compound": "CC/C=C\\C=C/CCCCCCCCCC(=O)OCC", "note": "(single isomer, unassigned) [Compound 3, ethyl (Z,Z)-11,13-hexadecadienoate]", "values": [{"measurement": "EAD activity of natural constituent", "setting": "[2]", "result": "EAD-active"}, {"measurement": "EAD activity of synthetic or authentic compound", "setting": "[2]", "result": "EAD active"}]}
{"compound": "CC/C=C\\C=C/CCCCCCCCCCO", "note": "[Z11,Z13-16:OH, Z,Z-11,13-hexadecadien-1-ol]", "values": [{"measurement": "effect of adding the compound to the blend of Z11,Z13-16:Ald with tricosapentaene", "setting": "[7]; wind tunnel", "result": "further enhanced attraction"}]}
{"compound": "CC/C=C\\C=C/CCCCCCCCCCOC(C)=O", "note": "(single isomer, unassigned) [Compound 4, (Z,Z)-11,13-hexadecadien-1-yl acetate]", "values": [{"measurement": "EAD activity of natural constituent", "setting": "[2]", "result": "EAD-active"}, {"measurement": "catches of meal moth in traps baited with virgin female navel orangeworm plus added compound", "setting": "[4]", "result": "completely shut off"}]}
